Test results from patent US11566003B2, “Isoquinolines as inhibitors of HPK1” (priority 2017, dated 2023).

Key:
HPK1 [1] = target: HPK1 (Homo sapiens (Human), UniProt Q92918); experiment: biochemical; type: binding
HPK1 [2] = target: HPK1 (Homo sapiens (Human), UniProt Q92918, S171E/T165E); experiment: biochemical

Cc1c(NC(C)C)cncc1-c1cc(N)c2cnc(NC(=O)[C@@H]3C[C@H]3C#N)cc2c1 (racemic) [Compound 186, (±)-trans-N-(8-amino-6-[4-methyl-5-[(propan-2-yl)amino]pyridin-3-yl]isoquinolin-3-yl)-2-cyanocyclopropane-1-carboxamide] showed a Ki (HPK1 [1]) of 6.96 nM.
Cc1c(N)cncc1-c1cc2cc(NC(=O)[C@@H]3C[C@H]3CC#N)ncc2c(N)c1Cl (racemic) [Compound 209, (±)-trans-N-(8-amino-6-(5-amino-4-methylpyridin-3-yl)-7-chloroisoquinolin-3-yl)-2-(cyanomethyl)cyclopropanecarboxamide] gave a Ki (HPK1 [1]) of 0.0405 nM.
In the case of C[C@H]1Cc2c(cncc2-c2cc(N)c3cnc(NC(=O)C4CC4)cc3c2)N1 [Compound 189, (S)—N-(8-amino-6-(2-methyl-2,3-dihydro-1H-pyrrolo[2,3-c]pyridin-4-yl)isoquinolin-3-yl)cyclopropanecarboxamide], the Ki (HPK1 [1]) is reported as 5.44 nM.
